Test results published in patent US12116371B2, “Substituted pyridines as irreversible inhibitors of menin-MLL interaction” (BIOMEA FUSION, INC., priority 2018, dated 2024).
Like-named read-outs stand apart in the source and are kept apart here.

Legend:
Experiment in all cases: Long-term proliferation (LTP) assay, CellTiterGlo (Example 103)
HL-60 cells = type: cell-based; conditions: for IC50: Homo sapiens
Method: (§1) The day of the experiment (TO) all the cell line suspensions were counted by Cell Viability Analyser, Vi-CELL and properly diluted with fresh medium to obtain the cell density reported in the Test System paragraph.
(§2) Cells were tested after 4 passages after thawing.
(§3) 200 μL/well and 150 μL/well of cell suspension were added into the 0.4 µL/well and 0.3 μL/well compound plates, respectively. • Cell plate containing 200 μL/well suspension was incubated at 37° C. in a humidified incubator with 5% CO2. • From each well of the 150 µL/well cell assay plate, 100 μL were harvested and transferred into a 96-well Optiplate (Perkin Elmer, Cat. n. 6005290) and cell viability was measured as described in 4.3 paragraphs (TO). • After four days in culture (T4) 150 μL/well of fresh medium were added into a new […] copy compound plate. • From each well of the 200 μL/well cell assay plate: • 100 μL were sampled for the cell viability measurement as described in 4.3 paragraphs (T4). • 50 μL were harvested and added to the 150 μL/well compound plate prepared as described in the first point to dilute 1:4 the cell suspension. • The cell assay plate diluted and containing 200 µL/well suspension were incubated at 37° C. in a humidified incubator with 5% CO2.
(§4) At T7-T11-T14 it was proceeded as described in T4, with the exception that no further cell dilution was carried out at T14.
(§5) Plates containing the samples to be tested were equilibrated at room temperature for approximately 30 min and then 30 μL/well of the Promega CellTiterGlo® reagent were added. Contents will be mixed for 5 min on an orbital shaker to induce cell lysis and then incubated at room temperature for an additional 10 min to stabilize the luminescent signal.
(§6) Luminescence was read by using VictorV (Perkin Elmer) multilabel plate reader using the standard protocol for luminescence in 96 well plate.
(§7) Data were expressed as % of inhibition compared to the 0.2% DMSO negative control, and was calculated as follows: % inhibition=100−[(RLU sample)×100/(RLU average controls*)] • *cells containing 0.2% DMSO
(§8) CRCs were analysed by GraphPad and IC50 values were calculated by non-linear regression using 4 parameter-logistic equation. IC50 (M) values were reported in the final data table.

RS4-11 (MLL-AF4) cells = type: cell-based; conditions: for IC50: Homo sapiens, RS4-11 (MLL-AF4), LTP assay
Method: as §1, §2, §3, §4, §5, §6, §7, §8

MOLM-13 (MLL-AF9) cells = type: cell-based, human; conditions: for IC50: Homo sapiens, MOLM-13 (MLL-AF9), LTP assay
Method: as §1, §2, §3, §4, §5, §6, §7, §8

MV4-11 (MLL-AF4) cells = type: cell-based, human; conditions: for IC50: Homo sapiens, MV4-11 (MLL-AF4), LTP assay
Method: as §1, §2, §3, §4, §5, §6, §7, §8

[1] = 96 h, Day 4, read-out: Day 4 IC50
[2] = 168 h, Day 7, read-out: Day 7 IC50
[3] = 264 h, Day 11, read-out: Day 11 IC50
[4] = 336 h, Day 14, read-out: Day 14 IC50

- IC50 (HL-60 cells; 96 h, Day 4, LTP assay, read-out: Day 4 IC50): 430 nM
- IC50 (HL-60 cells; 168 h, Day 7, LTP assay, read-out: Day 7 IC50): 260 nM
- IC50 (HL-60 cells; 264 h, Day 11, LTP assay, read-out: Day 11 IC50): 290 nM
- IC50 (HL-60 cells; 336 h, Day 14, LTP assay, read-out: Day 14 IC50): 270 nM
- IC50 (RS4-11 (MLL-AF4) cells; [1]): 500 nM
- IC50 (RS4-11 (MLL-AF4) cells; [2]): 470 nM
- IC50 (RS4-11 (MLL-AF4) cells; [3]): > 5000 nM
- IC50 (MOLM-13 (MLL-AF9) cells; [1]): 260 nM
- IC50 (MOLM-13 (MLL-AF9) cells; [2]): 280 nM
- IC50 (MOLM-13 (MLL-AF9) cells; [3]): 240 nM
- IC50 (MOLM-13 (MLL-AF9) cells; [4]): 230 nM
- IC50 (MV4-11 (MLL-AF4) cells; [1]): 460 nM
- IC50 (MV4-11 (MLL-AF4) cells; [2]): 290 nM
- IC50 (MV4-11 (MLL-AF4) cells; [3]): 220 nM
- IC50 (MV4-11 (MLL-AF4) cells; [4]): 200 nM
SMILES: C=CC(=O)NC1CCCN(Cc2ccnc(C(=O)Nc3ccc(-c4cc5c(N6CCOCC6)ncnc5[nH]4)cc3)c2)C1 (stereo not shown) [Compound 10]
- effect on cell viability at T4 (HL-60 cells; T4, increasing concentrations): fully inhibited
- effect on cell viability at T4 (RS4-11 (MLL-AF4) cells; RS4;11, T4, increasing concentrations): fully inhibited
- effect on cell viability at T4 (MOLM-13 (MLL-AF9) cells; MOLM-13, T4, increasing concentrations): fully inhibited
- effect on cell viability at T4 (MV4-11 (MLL-AF4) cells; MV4-11, T4, increasing concentrations): fully inhibited
